Experimental data taken from ChEMBL document CHEMBL1817605, “Development of a highly selective fluorescence probe for alkaline phosphatase” (Bioorg Med Chem Lett, 2011).
Activity calls are given as the source filed them. The rule behind the calls is not given here.

Columns and labels:
[1] = Activity of alkaline phosphatase at 2 uM measured every 2 mins from up to 30 mins by fluorometric analysis
[2] = biological target: T1, Tyrosine-protein phosphatase non-receptor type 1 (Homo sapiens) (UniProt P18031); test: Activity of PTP1B
T1 sequence (whole entry): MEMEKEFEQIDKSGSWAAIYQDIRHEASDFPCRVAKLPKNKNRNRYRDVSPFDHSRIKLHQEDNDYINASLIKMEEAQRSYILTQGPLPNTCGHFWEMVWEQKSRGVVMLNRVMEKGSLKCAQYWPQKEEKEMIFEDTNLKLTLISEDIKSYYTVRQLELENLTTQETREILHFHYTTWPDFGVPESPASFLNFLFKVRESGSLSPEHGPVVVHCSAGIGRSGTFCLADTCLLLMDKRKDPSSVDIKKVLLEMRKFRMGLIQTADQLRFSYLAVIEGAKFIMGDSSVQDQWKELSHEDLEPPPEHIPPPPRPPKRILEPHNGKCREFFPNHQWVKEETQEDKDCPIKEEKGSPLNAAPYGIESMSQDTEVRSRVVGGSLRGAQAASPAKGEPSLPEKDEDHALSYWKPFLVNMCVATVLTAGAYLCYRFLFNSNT

[3] = biological target: Serine/threonine-protein phosphatase PP1-alpha catalytic subunit (Homo sapiens) (UniProt P62136); test: Activity of PP1 alpha
[4] = Ratio of Vmax to Km for alkaline phosphatase
[5] = Activity of alkaline phosphatase by Michaelis-Menten equation analysis

Serine/threonine-protein phosphatase PP1-alpha catalytic subunit (Homo sapiens), sequence (P62136 whole entry): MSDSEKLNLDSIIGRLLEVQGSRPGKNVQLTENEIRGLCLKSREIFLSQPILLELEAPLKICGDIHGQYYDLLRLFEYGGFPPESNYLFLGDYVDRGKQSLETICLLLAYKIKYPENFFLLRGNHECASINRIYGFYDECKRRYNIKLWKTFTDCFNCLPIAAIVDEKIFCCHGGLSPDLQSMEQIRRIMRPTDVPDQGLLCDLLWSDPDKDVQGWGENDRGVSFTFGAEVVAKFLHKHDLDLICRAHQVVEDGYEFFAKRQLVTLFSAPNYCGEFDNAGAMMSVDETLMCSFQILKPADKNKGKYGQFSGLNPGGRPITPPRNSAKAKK

Activity [1]	Activity [2]	Activity [3]	Vmax/Km [4]	Km [5]	Vmax [5]	Compound
Active	Active					O=C1OC2(c3ccc(OP(=O)(O)O)cc3Oc3cc(OP(=O)(O)O)ccc32)c2ccccc21
Active	inactive	inactive	0.043 min⁻¹	0.77 µM	0.033 µM/min	COc1ccc(-c2c3ccc(=O)cc-3oc3cc(OCOP(=O)(O)O)ccc23)c(C)c1
Active	Active	Active	0.026 min⁻¹	0.96 µM	0.025 µM/min	COc1ccc(-c2c3ccc(=O)cc-3oc3cc(OP(=O)(O)O)ccc23)c(C)c1
